One data set in a line: PK test on SD rats. In kind it is in vivo. The following applies: for AUC(0-inf) / AUC(0-t) / Tmax: male, rat, plasma. The procedure: The PK test method of the compound in vivo of SD rats (purchased from Hunan slack Jing Da laboratory animal Co., Ltd, weight: […] male, ages of 2-3 months, 3 per oral group, 3 per intravenous injection group):
The Rats were administered intragastrically with the test compound at doses of 2.5 mg/kg or 5 mg/kg or administered intravenously with the test compound at doses of 1 mg/kg.
Blood samples were taken at 0.083, 0.25, 0.5, 1, 2, 5, 7 and 24 hours from vein after the administration, and collected in anticoagulation tube with EDTA-K2. The test compounds were extracted from plasma samples by liquid-liquid extraction. Then quantitative analysis was performed on a triple-quadrupole tandem mass spectrometer using multiple reaction monitoring (MRM). Pharmacokinetic parameters were calculated using a noncompartmental method by WinNonLin 6.3 software.

The subject of data set [1] is HBV. Kind of data set: Anti HBV activity in vitro, viral DNA from HepG2.2.15 cells quantified by qPCR. Particulars: qPCR of viral DNA in supernatant, read-out: EC50 against HBV replication. It is filed as cell-based. In outline:
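HepG2.2.15 cells, grown 3 days to confluence, treated with 8-point 4-fold dilutions (top final 4 μM, 0.5% DMSO). Secreted HBV DNA in supernatant quantified by SYBR qPCR against plasmid standard curve; EC50 from four-parameter nonlinear regression of concentration vs viral copy number.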
(In general: Quantitative PCR measures a nucleic acid by following its amplification.)

The nature of data set [2]: Cytotoxicity in HepG2.2.15 cells (CellTiter Glo). It is filed as cell-based. Particulars: human, highest concentration 150 μM. In outline: (§1)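 Serially diluted compound added to HepG2.2.15 cells (3000/well), top final concentration 150 μM; cultured 4 days at 37° C. Viability read by CellTiter Glo luminescence, cytotoxicity % relative to DMSO control wells, CC50 from four-parameter nonlinear regression.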
(In general: In ATP-based viability assays light output follows the ATP content of the culture.)

The test system of the next data set is HepG2.2.15 cells. As to the kind of experiment: Cytotoxicity in HepG2.2.15 cells (CellTiter Glo). The following applies: 4 days, highest concentration 150 μM. It is filed as cell-based. In a few lines: as §1
Data set [3] concerns HBV. Particulars: Science, 2003, 299, 893-896; cited from earlier work.

Like-named read-outs stand apart in the source and are kept apart here. A value given as a limit tells only on which side of the number the result lay.

`COC(=O)C1=C(CN2CCN3C(=O)N(c4ccc(CC(C)(C)C(=O)O)cc4)C[C@@H]3C2)NC(c2nccs2)=N[C@H]1c1ccc(F)cc1Cl` [Example 17, 3-(4-((S)-7-(((R)-6-(2-chloro-4-fluorophenyl)-5-(methoxycarbonyl)-2-(thiazol-2-yl)-3,6-dihydropyrimidin-4-yl)methyl)-3-oxohexahydroimidazo[1,5-a]pyrazin-2(3H)-yl)phenyl)-2,2-dimethylpropionic Acid]: in the data set “PK test on SD rats” (iv, 1 mg/kg), the AUC(0-inf) – broadly, the area under the concentration-time curve extrapolated to infinity – is 979 ng·h/mL; the AUC(0-t) (in general, the area under the concentration-time curve up to a stated or last time point) came out at 977 ng·h/mL; the Tmax (commonly the time at which the peak concentration occurs) was found to be 4.98 min. In the data set “PK test on SD rats” (po, 5 mg/kg), the AUC(0-inf) is 5580 ng·h/mL, the AUC(0-t) was 4710 ng·h/mL, the Tmax is 60 min and the F came out at 114.1%. Further, the EC50 – broadly, the concentration that produces a half-maximal response – in the data set on HBV [1] (Hepatitis B virus) came out at 4 nM. For the same compound, the CC50 (usually the concentration giving 50% cytotoxicity) at 4 days in data set [2] is > 150000 nM.

In the case of `COC(=O)C1=C(CN2CCN3C(=O)N(c4ccc(C(C)CC(=O)O)cc4)C[C@@H]3C2)NC(c2nccs2)=N[C@H]1c1ccc(F)cc1Cl` (stereo partly drawn) [Example 19, 3-(4-((S)-7-(((R)-6-(2-chloro-4-fluorophenyl)-5-(methoxycarbonyl)-2-(thiazol-2-yl)-3,6-dihydropyrimidin-4-yl)methyl)-3-oxohexahydroimidazo[1,5-a]pyrazin-2(3H)-yl)phenyl) butanoic Acid], in the data set “PK test on SD rats” (iv, 1 mg/kg), the AUC(0-inf) was 5520 ng·h/mL, the AUC(0-t) was determined as 5520 ng·h/mL and the Tmax was 4.98 min. Besides, in “PK test on SD rats” (po, 5 mg/kg), the AUC(0-inf) is 20300 ng·h/mL, the AUC(0-t) worked out at 20300 ng·h/mL, the Tmax was found to be 30 min and the F was 73.4%. For the same compound, the EC50 in the data set with HBV [1] (Hepatitis B virus) amounted to 3 nM. In addition, the CC50 at 4 days in data set [2] is > 150000 nM.

As for `CCOC(=O)C1=C(CN2CCN3C(=O)N(c4nc(CCC(=O)O)cs4)C[C@@H]3C2)NC(c2nccs2)=N[C@H]1c1ccc(F)cc1Br` [Example 30], in the data set with HBV [1], the EC50 was determined as 12 nM. The CC50 in the data set on HepG2.2.15 cells is 133000 nM.

For `Nc1ccn([C@@H]2CS[C@H](CO)O2)c(=O)n1` [lamivudine], in the data set with HBV [3], the IC50 (as a rule, the point on the concentration scale where inhibition reaches its midpoint) was 300 nM.
